Our source for the IC50 values is US20250376461A1, “INDAZOLE DERIVATIVES FOR TREATING TRPM3-MEDIATED DISORDERS” (Katholieke Universiteit Leuven, priority 2022, published 2025).

A value given as a limit tells only on which side of the number the result lay.

Broadly, the IC50 is the concentration that gives 50% inhibition.

T1 sequence (J9SQF3 1-1709 isoform J9SQF3-12): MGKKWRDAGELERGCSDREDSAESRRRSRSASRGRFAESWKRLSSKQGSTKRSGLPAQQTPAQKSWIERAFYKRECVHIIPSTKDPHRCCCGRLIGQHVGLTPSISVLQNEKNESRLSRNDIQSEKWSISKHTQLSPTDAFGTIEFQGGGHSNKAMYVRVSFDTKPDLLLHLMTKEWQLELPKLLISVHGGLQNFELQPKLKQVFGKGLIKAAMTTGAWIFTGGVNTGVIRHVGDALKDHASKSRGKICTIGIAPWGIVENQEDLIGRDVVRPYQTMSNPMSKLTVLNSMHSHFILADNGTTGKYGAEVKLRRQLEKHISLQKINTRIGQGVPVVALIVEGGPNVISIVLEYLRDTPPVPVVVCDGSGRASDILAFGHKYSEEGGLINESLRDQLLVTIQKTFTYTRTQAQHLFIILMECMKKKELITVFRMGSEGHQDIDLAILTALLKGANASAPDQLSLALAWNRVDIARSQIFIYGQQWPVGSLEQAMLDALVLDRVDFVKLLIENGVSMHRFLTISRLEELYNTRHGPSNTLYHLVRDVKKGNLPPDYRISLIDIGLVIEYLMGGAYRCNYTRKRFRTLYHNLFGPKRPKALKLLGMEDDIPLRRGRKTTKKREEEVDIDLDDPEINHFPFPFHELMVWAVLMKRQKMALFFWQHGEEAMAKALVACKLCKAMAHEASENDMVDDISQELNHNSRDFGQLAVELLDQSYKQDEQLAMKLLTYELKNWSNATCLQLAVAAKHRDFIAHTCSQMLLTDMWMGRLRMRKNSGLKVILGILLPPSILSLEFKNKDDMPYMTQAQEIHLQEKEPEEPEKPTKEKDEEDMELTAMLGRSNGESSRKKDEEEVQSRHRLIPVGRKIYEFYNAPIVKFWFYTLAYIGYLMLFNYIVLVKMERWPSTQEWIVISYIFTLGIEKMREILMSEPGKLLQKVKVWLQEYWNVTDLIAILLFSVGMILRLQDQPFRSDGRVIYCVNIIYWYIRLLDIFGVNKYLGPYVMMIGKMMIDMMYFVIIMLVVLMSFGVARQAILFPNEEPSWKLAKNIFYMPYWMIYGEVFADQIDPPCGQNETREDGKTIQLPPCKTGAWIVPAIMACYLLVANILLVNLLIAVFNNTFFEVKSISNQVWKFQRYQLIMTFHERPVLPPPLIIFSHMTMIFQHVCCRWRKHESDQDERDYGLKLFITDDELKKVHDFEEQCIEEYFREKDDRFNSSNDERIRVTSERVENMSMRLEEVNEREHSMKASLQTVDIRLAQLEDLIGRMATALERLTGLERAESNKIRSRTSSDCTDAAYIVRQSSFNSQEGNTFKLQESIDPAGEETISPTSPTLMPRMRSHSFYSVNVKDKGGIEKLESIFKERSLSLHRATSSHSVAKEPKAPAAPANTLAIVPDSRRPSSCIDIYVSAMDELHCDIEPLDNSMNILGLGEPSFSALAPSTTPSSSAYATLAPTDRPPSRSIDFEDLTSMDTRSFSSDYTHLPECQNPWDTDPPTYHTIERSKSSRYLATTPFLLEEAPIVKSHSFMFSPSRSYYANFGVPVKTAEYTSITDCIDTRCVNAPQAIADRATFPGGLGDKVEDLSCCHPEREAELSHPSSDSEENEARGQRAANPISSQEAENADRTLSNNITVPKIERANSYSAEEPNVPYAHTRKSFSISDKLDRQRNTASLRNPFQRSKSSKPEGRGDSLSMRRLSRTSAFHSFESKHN

This assay concerns the target T1, mouse TRPM3α2 (mTRPM3) ion channel (Mus musculus, UniProt J9SQF3).
T1 construct: expressed in transfected cells; host or cells: flip-in HEK293
Briefly: TRPM3 ion channel driven Ca2+ uptake, Fluo-4 AM assay, mTRPM3alpha2 overexpressing flip-in HEK293 cells stimulated with pregnenolone sulfate (50 μM). The following applies: mTRPM3 overexpressing HEK293 cells stimulated with pregnenolone sulfate (50 μM), activity ranges A, B, C. It is filed as cell-based. Summed up: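 Ca2+ influx via mouse TRPM3α2 was opened with pregnenolone sulfate (50 μM) and tracked by Fluo-4 AM fluorescence at 485/535 nm, read directly after adding about 2000 stably transfected HEK293 cells per well to compound. IC50 values come from percent inhibition scaled to vehicle and positive-control inhibitor signals.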
The compound `Cc1ncsc1COc1ccc2nn(C)c(C(=O)NC3CCN(CC(F)(F)F)C3)c2c1` (stereo not drawn) [Cpd 057, 2-methyl-5-[(4-methyl-1,3-thiazol-5-yl)methoxy]-N-[1-(2,2,2-trifluoroethyl)pyrrolidin-3-yl]-2H-indazole-3-carboxamide] showed an IC50 of 1 to 20 µM.
For `Cc1ncsc1COc1ccc2nn(C)c(C(=O)NC3CCNCC3(F)F)c2c1` (single isomer, unassigned) [Cpd 132 - En2] the value was 1 to 20 µM; for `Cn1nc2ccc(OCc3ccccn3)cc2c1C(=O)NC(C)(CO)CO` [Cpd 127, N-(1,3-dihydroxy-2-methylpropan-2-yl)-2-methyl-5-[(pyridin-2-yl)methoxy]-2H-indazole-3-carboxamide], less than 1 µM; for `Cn1nc2ccc(OCC3CCC3)cc2c1C(=O)NC(C)(CO)CO` [Cpd 129, 5-(cyclobutylmethoxy)-N-(1,3-dihydroxy-2-methylpropan-2-yl)-2-methyl-2H-indazole-3-carboxamide], 1 to 20 µM.
Turning to `Cn1nc2ccc(OCc3cccnc3C(F)(F)F)cc2c1C(=O)NCc1cccc(O)n1` [Cpd 036, N-[(6-hydroxypyridin-2-yl)methyl]-2-methyl-5-{[2-(trifluoromethyl)pyridin-3-yl]methoxy}-2H-indazole-3-carboxamide], the concentration for half-maximal inhibition (IC50) is 1 to 20 µM.
Take `Cc1nc(COc2ccc3nn(C)c(C(=O)NC(C)(CO)C(N)=O)c3c2)cs1` (single isomer, unassigned) [Cpd 160 - En1]: the IC50 fell in the range of 1 to 20 µM.
Consider `Cn1nc2ccc(OCc3ccccc3)cc2c1C(=O)NC(C)(C)CO` [Cpd 023, 5-(benzyloxy)-N-(1-hydroxy-2-methylpropan-2-yl)-2-methyl-2H-indazole-3-carboxamide], for which the concentration for half-maximal inhibition (IC50) was 1 to 20 µM.
`C[C@H](NC(=O)c1c2cc(OCc3ccccn3)ccc2nn1C)C(N)=O` [Cpd 082, (2S)-2-({2-methyl-5-[(pyridin-2-yl)methoxy]-2H-indazol-3-yl}formamido)propanamide] displayed an IC50 of 1 to 20 µM.
Compound `Cc1ncc(COc2ccc3nn(C(C)C)c(C(=O)NC(C)(CO)C(N)=O)c3c2)s1` (single isomer, unassigned) [Cpd 195 - En1] showed a half-inhibitory concentration (IC50) greater than 20 µM.
For `Cc1ncsc1COc1ccc2nn(C)c(C(=O)NC3CNCC(F)(F)C3)c2c1` (single isomer, unassigned) [Cpd 213 - En2], the 50% inhibitory concentration (IC50) was greater than 20 µM.
`Cn1nc2ccc(OCc3ccccc3C(F)F)cc2c1C(=O)NC1(CO)CCNC1=O` (single isomer, unassigned) [Cpd 176 - En2] displayed an IC50 of 1 to 20 µM.
On to `Cn1nc2ccc(OCc3ccccn3)cc2c1C(=O)NCc1c(F)cccc1C(F)(F)F` [Cpd 209, N-{[2-fluoro-6-(trifluoromethyl)phenyl]methyl}-2-methyl-5-[(pyridin-2-yl)methoxy]-2H-indazole-3-carboxamide], for which the IC50 was greater than 20 µM.
The compound `CN(C)C(=O)C1(NC(=O)c2c3cc(OCc4cccnc4C(F)(F)F)ccc3nn2C)CCOC1` (single isomer, unassigned) [Cpd 186 - En1] yielded a half-maximal inhibitory concentration (IC50) of 1 to 20 µM.
In the case of `Cc1ncsc1COc1ccc2nn(C)c(C(=O)NC3(CO)CC3)c2c1` [Cpd 047, N-[1-(hydroxymethyl)cyclopropyl]-2-methyl-5-[(4-methyl-1,3-thiazol-5-yl)methoxy]-2H-indazole-3-carboxamide], the half-inhibitory concentration (IC50) was in the range of 1 to 20 µM.
The same measure for `Cn1nc2ccc(OCc3ccccc3F)cc2c1C(=O)NC1(C(N)=O)CCOCC1` [Cpd 097, N-(4-carbamoyloxan-4-yl)-5-[(2-fluorophenyl)methoxy]-2-methyl-2H-indazole-3-carboxamide]: less than 1 µM; for `Cn1nc2ccc(OCc3cccnc3C(F)(F)F)cc2c1C(=O)NC(CO)C(N)=O` (stereo not drawn) [Cpd 026, 3-hydroxy-2-[(2-methyl-5-{[2-(trifluoromethyl)pyridin-3-yl]methoxy}-2H-indazol-3-yl)formamido]propanamide]: less than 1 µM.
The same measure for `Cn1nc2ccc(OCc3ccccn3)cc2c1C(=O)N[C@@H]1CCN(CCO)C1=O` [Cpd 152, N-[(3R)-1-(2-hydroxyethyl)-2-oxopyrrolidin-3-yl]-2-methyl-5-[(pyridin-2-yl)methoxy]-2H-indazole-3-carboxamide]: 1 to 20 µM.
`Cn1nc2ccc(OCc3cccnc3C(F)(F)F)cc2c1C(=O)NC1(CO)CCNC1=O` (single isomer, unassigned) [Cpd 177 - En2] displayed an IC50 of 1 to 20 µM.
Compound `Cn1nccc1COc1ccc2nn(C)c(C(=O)NC3COCC3O)c2c1` (single isomer, unassigned) [Cpd 056 - Dia1] returned a half-maximal inhibitory concentration (IC50) of 1 to 20 µM.
The same measure for `Cc1ncsc1COc1ccc2nn(C)c(C(=O)NCC(C)(C)CO)c2c1` [Cpd 024, N-(3-hydroxy-2,2-dimethylpropyl)-2-methyl-5-[(4-methyl-1,3-thiazol-5-yl)methoxy]-2H-indazole-3-carboxamide]: 1 to 20 µM.
In turn, `Cn1nccc1COc1ccc2nn(C)c(C(=O)NC3CCNC3=O)c2c1` (stereo not drawn) [Cpd 062, 2-methyl-5-[(1-methyl-1H-pyrazol-5-yl)methoxy]-N-(2-oxopyrrolidin-3-yl)-2H-indazole-3-carboxamide] returned an IC50 greater than 20 µM.
On to `Cn1nc2ccc(OCc3cccnc3)cc2c1C(=O)NC1(CO)CCNC1=O` (single isomer, unassigned) [Cpd 180 - En1], for which the concentration for half-maximal inhibition (IC50) was less than 1 µM.
For `Cn1nc2ccc(OCc3ccccc3)cc2c1C(=O)NCC(C)(C)CO` [Cpd 020, 5-(benzyloxy)-N-(3-hydroxy-2,2-dimethylpropyl)-2-methyl-2H-indazole-3-carboxamide] the value was 1 to 20 µM; for `Cc1ncsc1COc1ccc2nn(C)c(C(=O)NC3(CO)CCC3)c2c1` [Cpd 043, N-[1-(hydroxymethyl)cyclobutyl]-2-methyl-5-[(4-methyl-1,3-thiazol-5-yl)methoxy]-2H-indazole-3-carboxamide], 1 to 20 µM; for `Cc1ncc(COc2ccc3nn(C)c(C(=O)N[C@H](C)C(N)=O)c3c2)s1` [Cpd 117, (2R)-2-({2-methyl-5-[(2-methyl-1,3-thiazol-5-yl)methoxy]-2H-indazol-3-yl}formamido)propanamide], greater than 20 µM.
Take `Cn1ccc(C(CO)NC(=O)c2c3cc(OCc4ccccn4)ccc3nn2C)n1` (single isomer, unassigned) [Cpd 251 - En2]: the IC50 is greater than 20 µM.
In the case of `Cc1ccc(COc2ccc3nn(C)c(C(=O)NC4(CO)CCNC4=O)c3c2)cn1` (single isomer, unassigned) [Cpd 169 - En1], the IC50 is greater than 20 µM.
As for `Cn1nc2ccc(OCC3CC3)cc2c1C(=O)NCC1CC1` [Cpd 133, 5-(cyclopropylmethoxy)-N-(cyclopropylmethyl)-2-methyl-2H-indazole-3-carboxamide], the half-inhibitory concentration (IC50) was greater than 20 µM.
Take `Cn1nc2ccc(OCc3ccccn3)cc2c1C(=O)NC1(CO)COC1` [Cpd 100, N-[3-(hydroxymethyl)oxetan-3-yl]-2-methyl-5-[(pyridin-2-yl)methoxy]-2H-indazole-3-carboxamide]: the IC50 was in the range of 1 to 20 µM.
In the case of `Cn1nc2ccc(OCc3cccnc3)cc2c1C(=O)NC1(C(N)=O)CCOC1` (single isomer, unassigned) [Cpd 168 - En2], the IC50 was less than 1 µM.
Turning to `Cn1nccc1COc1ccc2nn(C)c(C(=O)O)c2c1` [Cpd 123, 2-methyl-5-[(1-methyl-1H-pyrazol-5-yl)methoxy]-2H-indazole-3-carboxylic acid], the IC50 is greater than 20 µM.
`Cn1nc2ccc(OCc3ccccc3C(F)F)cc2c1C(=O)NC1(C(N)=O)CCOC1` (single isomer, unassigned) [Cpd 175 - En2]: the IC50 fell in the range of 1 to 20 µM.
Compound `Cn1nc2ccc(OCc3cccnc3C(F)(F)F)cc2c1C(=O)NC1(C(N)=O)CCOC1` (single isomer, unassigned) [Cpd 178 - En2] showed an IC50 of less than 1 µM.
As for `Cc1ccc(COc2ccc3nn(C)c(C(=O)NC(C)(CO)C(N)=O)c3c2)nc1` (single isomer, unassigned) [Cpd 181 - En1], the IC50 was greater than 20 µM.
The same measure for `Cn1nc2ccc(OCc3ccccn3)cc2c1C(=O)NCC(O)CC(F)(F)F` (single isomer, unassigned) [Cpd 245 - En1]: greater than 20 µM; for `Cn1nc2ccc(OCc3ccccn3)cc2c1C(=O)NC(CO)CC(N)=O` (single isomer, unassigned) [Cpd 240 - En2, 4-hydroxy-3-({2-methyl-5-[(pyridin-2-yl)methoxy]-2H-indazol-3-yl}formamido)butanamide]: greater than 20 µM; for `Cc1ncsc1COc1ccc2nn(C)c(C(=O)NC3CCN(C)CC3)c2c1` [Cpd 112, 2-methyl-5-[(4-methyl-1,3-thiazol-5-yl)methoxy]-N-(1-methylpiperidin-4-yl)-2H-indazole-3-carboxamide]: greater than 20 µM.
On to `CN1CC(NC(=O)c2c3cc(OCc4ccnn4C)ccc3nn2C)C(F)(F)C1` (stereo not drawn) [Cpd 088, N-(4,4-difluoro-1-methylpyrrolidin-3-yl)-2-methyl-5-[(1-methyl-1H-pyrazol-5-yl)methoxy]-2H-indazole-3-carboxamide], for which the half-maximal inhibitory concentration (IC50) is greater than 20 µM.
`Cn1nc2ccc(OCc3ccccc3)cc2c1C(=O)NC1(CCO)CCC1` [Cpd 051, 5-(benzyloxy)-N-[1-(2-hydroxyethyl)cyclobutyl]-2-methyl-2H-indazole-3-carboxamide]: the IC50 lay in the range of 1 to 20 µM.
In turn, `Cn1nc2ccc(OCc3ccccn3)cc2c1C(=O)NC1(CO)CCC1` [Cpd 086, N-[1-(hydroxymethyl)cyclobutyl]-2-methyl-5-[(pyridin-2-yl)methoxy]-2H-indazole-3-carboxamide] had a concentration for half-maximal inhibition (IC50) of 1 to 20 µM.
As to `Cn1nc2ccc(OCc3ccccc3F)cc2c1C(=O)NC(C)(CO)CC(F)F` (single isomer, unassigned) [Cpd 203 - En1], the IC50 was less than 1 µM.
`Cc1ncsc1COc1ccc2nn(C)c(C(=O)NC(C)(CO)C(=O)N(C)C)c2c1` (single isomer, unassigned) [Cpd 184 - En1] returned an IC50 of 1 to 20 µM.
